Measurements as given in US7553881B2, “Dental materials based on radically polymerizable macromers with antimicrobial effect” (Ivoclar Vivadent AG, priority 2006, dated 2009).

System: Staphylococcus aureus
Test: Antimicrobial examination of photopolymerized, washed adhesive films on slides
Type: cell-based
Conditions: adhesive with 5 wt.-% MDPB, film washed two days with water
Protocol: The above adhesives were applied to a slide and photopolymerized using a UV lamp.
In a Petri dish, a modified slide was covered with 30 ml of a Staphylococcus aureus suspension in PBS (→10^7 bacteria cells/ml) and then incubated accompanied by light shaking (50 rpm) for 1 h at 37° C. The bacterial suspension was then drawn off and the slide was washed with pure PBS (15+15 ml). The slide was then dried, transferred to a new Petri dish, covered with 30 ml 1.5% nutrient agar and then incubated at 37° C. A blind sample was then analogously tested in each case using a slide which was coated with adhesive without biocidal macromer.
The mixture was applied to a slide and photopolymerized with the help of a UV lamp. […] A slide which had been coated with adhesive without the biocidal monomer MDPH served as comparison.

C=C(C)C(=O)OCCCCCCCCCCCC[n+]1ccccc1.[Br-] [MDPB, 12-methacryloyloxydodecylpyridinium bromide]
bacterial growth on slide coated with polymerized adhesive: no bacterial decay attack on the film itself
bacterial growth on slide coated with polymerized adhesive (listed as MDPH): no bacterial attack
